From US11464749B2, “Bismuth-thiol compositions and methods of use” (Microbion Corporation, priority 2018, dated 2022)
In brackets after ≈: the same amount, converted by molar mass. Several values for one entry are separate records, joined by “and”; a condition that tells them apart may be missing. Identical values can stand only once. Like-named read-outs stand apart in the source and are kept apart here.

Tests used:
[1] = test system: B. cepacia; assay: FIC checkerboard assay; type: cell-based; conditions: Burkholderia cepacia, read-out: Drug B MIC
[2] = test system: B. cenocepacia; assay: FIC checkerboard assay; type: cell-based; conditions: for MIC: Burkholderia cenocepacia, read-out: Drug B MIC
[3] = test system: P. aeruginosa; assay: FIC checkerboard assay; type: cell-based; conditions: Pseudomonas aeruginosa, read-out: Drug B MIC
[4] = test system: Achromobacter spp.; assay: MIC against CF bacterial strains (Example 5)
[5] = test system: B. cenocepacia (B cepacia complex); assay: MIC against CF bacterial strains (Example 5)
[6] = test system: M. abscessus complex; assay: MIC against CF bacterial strains (Example 5); type: cell-based, Mycobacterium abscessus; conditions: Mycobacteroides abscessus, read-out: MIC
Protocol: (§1) A range of CF-isolated strains of Mycobacterium avium and Mycobacterium abscessus were included; which allows for understanding of the activity against non-tubercular Mycobacteria (NTM). Two distinct bismuth-thiol compounds were evaluated, including BisEDT and BisBDT. […] The CF-isolates of greater clinical relevance, including both M abscessus spp. and Burkholderia spp., were both consistently found to be much more susceptible to BisEDT and BisBDT.

[7] = test system: B. cepacia (cepacia complex); assay: MIC against CF bacterial strains (Example 5); type: cell-based; conditions: Burkholderia cepacia, strain BC17
Protocol: as §1

[8] = test system: B. multivorans (cepacia complex); assay: MIC against CF bacterial strains (Example 5); type: cell-based; conditions: Burkholderia multivorans, strain BC5b
Protocol: as §1

[9] = test system: P. aeruginosa; assay: MIC against CF bacterial strains (Example 5); conditions: Pseudomonas aeruginosa
[10] = test system: S. aureus ATCC 29213; conditions: control strain ATCC 29213; per CLSI M100-S24 or provided by Microbion; cited from earlier work
[11] = test system: Burkholderia spp.; assay: organism not typed; type: cell-based; conditions: read-out: Drug B MIC
[12] = test system: S. maltophilia; assay: MIC against CF bacterial strains (Example 5); conditions: Stenotrophomonas maltophilia
[13] = test system: S. pyogenes; assay: Broth microdilution MIC (Example 11); conditions: Streptococcus pyogenes
[14] = test system: S. agalactiae; assay: Broth microdilution MIC (Example 11); conditions: Streptococcus agalactiae
[15] = test system: S. pneumoniae; assay: Broth microdilution MIC (Example 11); conditions: Streptococcus pneumoniae
[16] = test system: S. pneumoniae; conditions: S. pneumoniae MMX 6837 (ATCC 49619); cited from earlier work
[17] = Particle size distribution of exposure aerosols (In-Tox Mercer Impactor); conditions: rat efficacy study exposure atmospheres
[18] = test system: E. faecalis; assay: Broth microdilution MIC (Example 11); conditions: Enterococcus faecalis, VRE, VRE Lev^R Cip^R Ery^R
[19] = test system: Staphylococcus aureus (MRSA); assay: Broth microdilution MIC (Example 11)
[20] = test system: Bacteroides fragilis; conditions: B. fragilis MMX 123 (ATCC 25285); cited from earlier work
[21] = test system: vancomycin-intermediate Staphylococcus aureus (VISA); assay: Broth microdilution MIC (Example 12); conditions: Staphylococcus aureus, NRS13 / VISA, read-out: MIC values
[22] = test system: Clostridium difficile; conditions: C. difficile MMX 4381 (ATCC 700057); cited from earlier work
[23] = S. pyogenes MMX 3820, ERY^R CLI^R
[24] = S. pyogenes MMX 3929, ERY^R CC^R
[25] = S. pyogenes MMX 5091, ERY^R CC^R
[26] = S. agalactiae MMX 3741, ERY^R CC^R
[27] = S. agalactiae MMX 3743, ERY^R CC^R
[28] = S. agalactiae MMX 4077, ERY^R CC^R
[29] = S. agalactiae MMX 4079, ERY^R CC^R Pen^R MEM^R
[30] = S. agalactiae MMX 4086, ERY^R CC^R
[31] = ATCC49619, S. pneumoniae MMX 6837 (ATCC 49619), QC
[32] = S. pneumoniae MMX 880, Lev^R SXT^R CC^R Ery^R Pen^R
[33] = S. pneumoniae MMX 937, Mem^R SXT^R CC^R Ery^R Pen^R
[34] = S. pneumoniae MMX 3959, CC^R Ery^R
[35] = S. pneumoniae MMX 5440, Mem^R SXT^R CC^R Ery^R Pen^R
[36] = S. pneumoniae MMX 5445, Mem^R SXT^R CC^R Ery^R Pen^R
[37] = S. pneumoniae MMX 8133, Mem^R SXT^R CC^R Ery^R Pen^R

NCC[C@H](O)C(=O)N[C@@H]1C[C@H](N)[C@@H](O[C@H]2O[C@H](CN)[C@@H](O)[C@H](O)[C@H]2O)[C@H](O)[C@H]1O[C@H]1O[C@H](CO)[C@@H](O)[C@H](N)[C@H]1O [Amikacin, reference compound]
MIC ([1]; B. cepacia 546, Amikacin alone (checkerboard with BisEDT)): 64 mg/L | MIC ([1]; B. cepacia 1793, Amikacin alone (panel with BisEDT)): 32 mg/L | FICB ([2]; B. cenocepacia 548, FIC of Amikacin in combination with BisEDT, per checkerboard row): 0.25 and 0.5 | FICB ([2]; B. cenocepacia 813, FIC of Amikacin in combination with BisEDT, per checkerboard row): 0.5 and 1 | MIC ([2]; B. cenocepacia 548, Amikacin alone (panel with BisEDT)): 128 mg/L | MIC [2]: > 256 mg/L | MIC ([3]; Amikacin alone, FIC panel with BisEDT, P. aeruginosa 6322): 64 mg/L | MIC ([3]; P. aeruginosa 6977, Amikacin alone (checkerboard with BisEDT)): 16 mg/L | MIC ([3]; P. aeruginosa 7745, Amikacin alone (checkerboard with BisEDT)): 4 mg/L | MIC ([3]; P. aeruginosa 8798, Amikacin alone (checkerboard with BisEDT)): 128 mg/L | MIC ([3]; P. aeruginosa 9108, Amikacin alone (checkerboard with BisEDT)): 4 mg/L | MIC [4]: > 64 mg/L | MIC ([4]; Achromobacter): 64 mg/L (≈ 109 µM) | MIC ([5]; Burkholderia cenocepacia): > 64 mg/L | MIC ([5]; strain AU197): >64 mg/L | MIC ([6]; AMT0130-8, M abscessus/massiliense complex): 16 mg/L (≈ 27.3 µM) | MIC ([6]; AMT153-9, M abscessus/massiliense complex): 32 mg/L (≈ 54.6 µM) | MIC ([6]; AMT0493-2, M abscessus/massiliense complex, Amikacin resistant): > 64 mg/L | MIC ([6]; ATCC19977, ATCC 19977, M abscessus/massiliense complex, Macrolide resistant (inducible)): 8 mg/L (≈ 13.7 µM) | MIC [7]: > 64 mg/L | MIC [8]: > 64 mg/L | MIC [9]: 16 mg/L (≈ 27.3 µM) | MIC ([9]; strain AGR14, Multi-drug resistant): > 64 mg/L | MIC ([9]; strain MR14, Multi-drug resistant): > 64 mg/L | Expected MIC: goal (acceptable range) [10]: 2 (1-4) mcg/mL | MIC [11]: > 256 mg/L | MIC [12]: 64 mg/L (≈ 109 µM)

CC1(C)S[C@@H]2[C@H](NC(=O)Cc3ccccc3)C(=O)N2[C@H]1C(=O)O [Penicillin]
MIC ([13]; S. pyogenes MMX 3068, Ery^R): ≤ 0.008 mg/L | MIC [13, 23]: ≤ 0.008 mg/L | MIC ([13]; S. pyogenes MMX 3919, ERY^R): ≤ 0.008 mg/L | MIC [13, 24]: ≤ 0.008 mg/L | MIC [13, 25]: ≤ 0.008 mg/L | MIC [14, 26]: 0.03 mg/L (≈ 0.0897 µM) | MIC [14, 27]: 0.06 mg/L (≈ 0.179 µM) | MIC [14, 28]: 0.06 mg/L (≈ 0.179 µM) | MIC [14, 29]: 2 mg/L (≈ 5.98 µM) | MIC [14, 30]: 0.06 mg/L (≈ 0.179 µM) | MIC [15, 31]: 0.25 mg/L (≈ 0.748 µM) | MIC [15, 32]: 2 mg/L (≈ 5.98 µM) | MIC [15, 33]: 4 mg/L (≈ 12 µM) | MIC [15, 34]: 0.12 mg/L (≈ 0.359 µM) | MIC [15, 35]: 4 mg/L (≈ 12 µM) | MIC [15, 36]: 4 mg/L (≈ 12 µM) | MIC [15, 37]: 4 mg/L (≈ 12 µM) | MIC, CLSI QC range [16]: (0.25-1) μg/mL

NC[C@H]1O[C@H](O[C@H]2[C@H](O)[C@@H](O[C@H]3O[C@H](CO)[C@@H](O)[C@H](N)[C@H]3O)[C@H](N)C[C@@H]2N)[C@H](N)C[C@@H]1O [Tobramycin, reference compound]
MIC ([1]; B. cepacia 546, Tobramycin alone (checkerboard with BisEDT)): 32 mg/L | MIC ([1]; B. cepacia 1793, Tobramycin alone (checkerboard with BisEDT)): 16 mg/L | FICB ([2]; B. cenocepacia 548, FIC of Tobramycin in combination with BisEDT, per checkerboard row): 0.5 | MICB ([2]; B. cenocepacia 548, MIC of Tobramycin in combination with BisEDT, per checkerboard row): 8 µg/mL and 16 µg/mL | FICB ([2]; B. cenocepacia 813, FIC of Tobramycin in combination with BisEDT, per checkerboard row): 0.5 and 1 | MIC ([2]; B. cenocepacia 548, Tobramycin alone (panel with BisEDT)): 32 mg/L | MIC ([2]; B. cenocepacia 813, Tobramycin alone (panel with BisEDT)): 256 mg/L | MIC ([3]; P. aeruginosa 6977, Tobramycin alone (checkerboard with BisEDT)): 128 mg/L | MIC ([3]; P. aeruginosa 7745, Tobramycin alone (checkerboard with BisEDT)): 0.5 mg/L | MIC ([3]; P. aeruginosa 8798, Tobramycin alone (checkerboard with BisEDT)): 0.016 mg/L | MIC ([3]; P. aeruginosa 9108, Tobramycin alone (checkerboard with BisEDT)): 0.5 mg/L | MIC ([3]; Tobramycin alone, FIC panel with BisEDT, P. aeruginosa 6322): 128 mg/L | MIC [11]: > 256 mg/L | MMAD of exposure aerosol [17]: 2.81 μm

CCC[C@@H]1C[C@@H](C(=O)N[C@@H]([C@H]2O[C@H](SC)[C@H](O)[C@@H](O)[C@H]2O)[C@H](C)Cl)N(C)C1 [clindamycin]
MIC ([18]; E. faecalis MMX 8960): > 32 mg/L | MIC ([18]; E. faecalis MMX 8961): > 32 mg/L | MIC ([18]; E. faecalis MMX 8962): > 32 mg/L | MIC ([13]; S. pyogenes MMX 3068, Ery^R): 0.06 mg/L (≈ 0.141 µM) | MIC [13, 23]: 1 mg/L (≈ 2.35 µM) | MIC ([13]; S. pyogenes MMX 3919, ERY^R): 0.12 mg/L (≈ 0.282 µM) | MIC [13, 24]: > 8 mg/L | MIC [13, 25]: > 8 mg/L | MIC ([19]; ATCC29213|MRSA|MSSA, S. aureus MMX 101 (ATCC 29213), QC, MSSA): 0.12 mg/L (≈ 0.282 µM) | MIC ([19]; MRSA, S. aureus MMX 5373, MRSA Lev^R Cip^R CC^R Ery^R Ox^R): > 32 mg/L | MIC ([19]; MRSA, S. aureus MMX 6311, MRSA Lev^R Cip^R CC^R Ery^R Ox^R): > 32 mg/L | MIC ([19]; MRSA, S. aureus MMX 9203, MRSA Lev^R Cip^R Ery^R Ox^R): 0.12 mg/L (≈ 0.282 µM) | MIC ([19]; MRSA, S. aureus MMX 9204, MRSA Lev^R Cip^R Ery^R Ox^R): 0.12 mg/L (≈ 0.282 µM) | MIC ([19]; MRSA, S. aureus MMX 9205, MRSA Lev^R Cip^R CC^R Ery^R Ox^R): > 32 mg/L | MIC, CLSI QC range [20]: (0.5-2)^1 ^ pg/mL | MIC [14, 26]: > 8 mg/L | MIC [14, 27]: > 8 mg/L | MIC [14, 28]: > 8 mg/L | MIC [14, 29]: > 8 mg/L | MIC [14, 30]: > 8 mg/L | MIC [15, 31]: 0.06 mg/L (≈ 0.141 µM) | MIC [15, 32]: > 8 mg/L | MIC [15, 33]: > 8 mg/L | MIC [15, 34]: > 8 mg/L | MIC [15, 35]: > 8 mg/L | MIC [15, 36]: > 8 mg/L | MIC [15, 37]: > 8 mg/L | MIC [21]: ≥ 4 mg/L | MIC, CLSI QC range [22]: (2-8) pg/mL
